According to ChEMBL document CHEMBL1240466, “New substituted 4-arylaminoquinazolines as potent inhibitors of breast tumor cell lines: in vitro and docking experiments” (Eur J Med Chem, 2010):
Activity calls are given as the source filed them.

Key:
Assay type in all cases: functional, cell-based
PC-3 = assay: Cytotoxicity against human PC3 cells by spectrophotometry
K562 = assay: Cytotoxicity against human K562 cells by spectrophotometry
OVCAR-3 = assay: Cytotoxicity against human OVCAR-3 cells by spectrophotometry
NCI-H460 = assay: Cytotoxicity against human NCI-H460 cells by spectrophotometry
HT-29 = assay: Cytotoxicity against human HT-29 cells by spectrophotometry
MCF7 = assay: Cytotoxicity against human MCF7 cells by spectrophotometry
UACC-62 = assay: Cytotoxicity against human UACC62 cells by spectrophotometry
NCI/ADR-RES = assay: Cytotoxicity against human NCI/ADR-RES cells by spectrophotometry

Measured: Activity

c1ccc(Nc2ncnc3cc4c(cc23)OCO4)cc1
active: all assays above

Cc1cccc(Nc2ncnc3cc4c(cc23)OCO4)c1
active: all assays above
